Results as given in patent US11338007B2, “Combination formulation of three antiviral compounds” (priority 2016, dated 2022).

What was measured:
Format in all cases: physicochemical
[1] = Stability of clinical film-coated tablets Batches A-D (Tables 14, 15A-15C); conditions: for LS (%): tablets Batch C, 1 g desiccant
Description: FIGS. 10-12 depict additional dissolution profiles for the sofosbuvir/velpatasvir SSD/voxilaprevir SSD tablets having the formulation described in Table 13 and which were used in phase 1, 2, and 3 clinical studies, where the dissolution testing was conducted at pH 5.0 acetate buffer containing 2.0% w/v polysorbate 80. Four batches of the sofosbuvir/velpatasvir SSD/voxilaprevir SSD tablets were tested, with Batch A manufactured at 100 kg and Batches B, C and D manufactured at 145 kg. All other aspects of the formulation and manufacturing process were otherwise equivalent. The four batches were packed in the same commercial configuration: 28 count, 100 mL HPDE bottle with 1 g silica gel desiccant canister and a polyester fiber coil. […] Moreover, for Batch A, the amount dissolved at 30 min remained between 98 and 100% for sofosbuvir, between 90 and 92% for velpatasvir SSD, and between 89 and 93% for voxilaprevir SSD. […] For Batch D, the amount dissolved at 30 min remained at 100% for sofosbuvir, between 90 and 91% for velpatasvir SSD, and between 89 and 91% for voxilaprevir SSD. Release of velpatasvir SSD and voxilaprevir SSD from the sofosbuvir/velpatasvir SSD/voxilaprevir SSD tablets associated with all four Batches was complete after 60 minutes.
Stability data associated with the sofosbuvir/velpatasvir SSD/voxilaprevir SSD film-coated tablets (Batch A) are presented in Table 14. […] No upward trend in the content of degradation products was observed over the time period studied. The water content for packaged tablets remained between 1.9 and 2.3% through 6 months storage at 40° C./75% RH, 30° C./75% RH, and 25° C./60% RH. As summarized in Table 14, the packaged tablets (Batch A) were physically stable with no change in XRPD patterns after 6 months storage.
Stability data associated with the sofosbuvir/velpatasvir SSD/voxilaprevir SSD film-coated tablets (Batches B-D) are presented in Tables 15A-15C, respectively. […] No upward trend in the content of degradation products was observed over the time period studied. The water content for packaged tablets remained between 1.8 and 2.3% through 6 months storage at 40° C./75% RH, 30° C./75% RH, and 25° C./60% RH. The packaged tablets were physically stable with no change in XRPD patterns after 6 months storage.
For Batch D, the packaged tablets had acceptable chemical stability for up to 1 month under all conditions with total impurities/degradation products of sofosbuvir remaining at 0.0%, velpatasvir SSD remaining between 0.7 and 0.8%, and voxilaprevir SSD remaining at 0.0%. No upward trend in the content of degradation products was observed over the time period studied. The water content for packaged tablets remained between 1.9 and 2.3% through 1 month storage at 40° C./75% RH, 30° C./75% RH, and 25° C./60% RH.

[2] = Tablet dissolution, 1.0% w/v CTAB in 190 mM acetate buffer pH 4.0, USP Type II, 75 rpm
[3] = Impact of desiccant and packaging configuration on tablet stability (Tables 24A-24C); conditions: for I/D (%) / LS (%): tablets;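 as to all read-outs here: stability of tablets stored with different desiccant amounts and packaging configurations, evaluating physical and chemical stability plus dissolution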
[4] = Batch A, 25° C./60% RH, 3 months
[5] = Batch A, 25° C./60% RH, 6 months
[6] = Batch A, 30° C./75% RH, 3 months
[7] = Batch A, 30° C./75% RH, 6 months
[8] = Batch A, 40° C./75% RH, 1 month
[9] = Batch A, 40° C./75% RH, 3 months
[10] = Batch A, 40° C./75% RH, 6 months
[11] = closed, 1 g desiccant, 25° C./60% RH, 12 weeks
[12] = closed, 1 g desiccant, 25° C./60% RH, 24 weeks
[13] = closed, 1 g desiccant, 40° C./75% RH, 4 weeks
[14] = closed, 1 g desiccant, 40° C./75% RH, 12 weeks
[15] = closed, 1 g desiccant, 40° C./75% RH, 24 weeks
[16] = closed, 3 g desiccant, 25° C./60% RH, 12 weeks
[17] = closed, 3 g desiccant, 25° C./60% RH, 24 weeks
[18] = closed, 3 g desiccant, 40° C./75% RH, 4 weeks
[19] = closed, 3 g desiccant, 40° C./75% RH, 12 weeks
[20] = closed, 3 g desiccant, 40° C./75% RH, 24 weeks
[21] = closed, no desiccant, 25° C./60% RH, 12 weeks
[22] = closed, no desiccant, 25° C./60% RH, 24 weeks
[23] = closed, no desiccant, 40° C./75% RH, 4 weeks
[24] = closed, no desiccant, 40° C./75% RH, 12 weeks
[25] = closed, no desiccant, 40° C./75% RH, 24 weeks
[26] = desiccant study, Initial, time 0

Compound: CC(C)OC(=O)C(C)N[P@](=O)(OC[C@H]1O[C@@H](n2ccc(=O)[nH]c2=O)[C@](C)(F)[C@@H]1O)Oc1ccccc1 (stereo in doubt) [sofosbuvir, (S)-isopropyl 2-(((S)-(((2R,3R,4R,5R)-5-(2,4-dioxo-3,4-dihydropyrimidin-1(2H)-yl)-4-fluoro-3-hydroxy-4-methyltetrahydrofuran-2-yl)methoxy)(phenoxy)phosphoryl)amino)propanoate]
- LS [1, 4]: 102.7%
- Total Imp./Deg. [1, 4]: 0.0%
- LS [1, 5]: 99.0%
- Total Imp./Deg. [1, 5]: 0.0%
- LS [1, 6]: 100.3%
- Total Imp./Deg. [1, 6]: 0.0%
- LS [1, 7]: 98.1%
- Total Imp./Deg. [1, 7]: 0.0%
- LS [1, 8]: 99.7%
- Total Imp./Deg. [1, 8]: 0.0%
- LS [1, 9]: 101.7%
- Total Imp./Deg. [1, 9]: 0.0%
- LS [1, 10]: 98.7%
- Total Imp./Deg. [1, 10]: 0.0%
- LS ([1]; Batch A, Initial): 99.0%
- Total Imp./Deg. ([1]; Batch A, Initial): 0.0%
- total impurities/degradation products ([1]; Batch A, up to 6 months under all conditions): 0.0%
- LS ([1]; Batch B, 25° C./60% RH, 3 months): 100.7%
- LS ([1]; Batch B, 25° C./60% RH, 6 months): 100.1%
- LS ([1]; Batch B, 30° C./75% RH, 3 months): 98.4%
- LS ([1]; Batch B, 30° C./75% RH, 6 months): 98.8%
- LS ([1]; Batch B, 40° C./75% RH, 1 month): 101.7%
- LS ([1]; Batch B, 40° C./75% RH, 3 months): 99.8%
- LS ([1]; Batch B, 40° C./75% RH, 6 months): 99.0%
- LS ([1]; Batch B, Initial): 100.0%
- Total Imp./Deg. ([1]; Batch B, Initial): 0.0%
- LS ([1]; Batch D, 40° C./75% RH, 1 month): 99.7%
- LS ([1]; Batch D, Initial): 99.8%
- total impurities/degradation products ([1]; Batch D, up to 1 month under all conditions): 0.0%
- total impurities/degradation products ([1]; Batches B and C, up to 6 months under all conditions): 0.0%
- LS (%) ([1]; 25° C./60% RH, 3 months): 98.9%
- LS (%) ([1]; 25° C./60% RH, 6 months): 98.8%
- LS (%) ([1]; 30° C./75% RH, 3 months): 100.1%
- LS (%) ([1]; 30° C./75% RH, 6 months): 99.1%
- LS (%) ([1]; 40° C./75% RH, 1 month): 101.1%
- LS (%) ([1]; 40° C./75% RH, 3 months): 99.4%
- LS (%) ([1]; 40° C./75% RH, 6 months): 98.9%
- LS (%) ([1]; Initial, time 0): 99.1%
- Dissolved at 30 min ([2]; Lot A (14 ct), 25° C./60% RH Closed, 1 month): 98%
- Dissolved at 30 min ([2]; Lot A (14 ct), 25° C./60% RH Closed, 3 months): 103%
- Dissolved at 30 min ([2]; Lot A (14 ct), 25° C./60% RH Closed, 6 months): 103%
- Dissolved at 30 min ([2]; Lot A (14 ct), 40° C./75% RH Closed, 1 month): 100%
- Dissolved at 30 min ([2]; Lot A (14 ct), 40° C./75% RH Closed, 3 months): 100%
- Dissolved at 30 min ([2]; Lot A (14 ct), 40° C./75% RH Closed, 6 months): 100%
- Dissolved at 30 min ([2]; Lot A (14 ct), 40° C./75% RH Open, 1 month): 98%
- Dissolved at 30 min ([2]; Lot A (14 ct), 40° C./75% RH Open, 3 months): 101%
- Dissolved at 30 min ([2]; Lot A (14 ct), 40° C./75% RH Open, 6 months): 100%
- Dissolved at 30 min ([2]; Lot A (14 ct), Initial): 103%
- Dissolved at 30 min ([2]; Lot B (28 ct), 25° C./60% RH Closed, 1 month): 102%
- Dissolved at 30 min ([2]; Lot B (28 ct), 25° C./60% RH Closed, 3 months): 100%
- Dissolved at 30 min ([2]; Lot B (28 ct), 25° C./60% RH Closed, 6 months): 102%
- Dissolved at 30 min ([2]; Lot B (28 ct), 40° C./75% RH Closed, 1 month): 97%
- Dissolved at 30 min ([2]; Lot B (28 ct), 40° C./75% RH Closed, 3 months): 99%
- Dissolved at 30 min ([2]; Lot B (28 ct), 40° C./75% RH Closed, 6 months): 99%
- Dissolved at 30 min ([2]; Lot B (28 ct), Initial): 103%
- total impurities/degradation products ([3]; desiccant study (0, 1, 3 g), all conditions, 6 months): 0.0%
- I/D (%) [3, 11]: 0.0%
- LS (%) [3, 11]: 99.3%
- I/D (%) [3, 12]: 0.0%
- LS (%) [3, 12]: 100.4%
- I/D (%) [3, 13]: 0.0%
- LS (%) [3, 13]: 100.0%
- I/D (%) [3, 14]: 0.0%
- LS (%) [3, 14]: 99.4%
- I/D (%) [3, 15]: 0.0%
- LS (%) [3, 15]: 101.7%
- I/D (%) [3, 16]: 0.0%
- LS (%) [3, 16]: 100.3%
- I/D (%) [3, 17]: 0.0%
- LS (%) [3, 17]: 101.6%
- I/D (%) [3, 18]: 0.0%
- LS (%) [3, 18]: 100.0%
- I/D (%) [3, 19]: 0.0%
- LS (%) [3, 19]: 99.9%
- I/D (%) [3, 20]: 0.0%
- LS (%) [3, 20]: 102.3%
- I/D (%) [3, 21]: 0.0%
- LS (%) [3, 21]: 99.3%
- I/D (%) [3, 22]: 0.0%
- LS (%) [3, 22]: 100.2%
- I/D (%) [3, 23]: 0.0%
- LS (%) [3, 23]: 101.4%
- I/D (%) [3, 24]: 0.0%
- LS (%) [3, 24]: 100.3%
- I/D (%) [3, 25]: 0.0%
- LS (%) [3, 25]: 100.4%
- I/D (%) [3, 26]: 0.0%
- LS (%) [3, 26]: 102.1%
